{"source": "patent US20170016004A1", "about": "“DDX5 AND ASSOCIATED NON-CODING RNAs AND MODULATION OF TH17 EFFECTOR FUNCTION” (priority 2015, published 2017)", "origin": "cited, not measured here", "system": "ileal and colonic SMAD7", "conditions": "oral"}
{"substance": "mongersen", "values": [{"measurement": "treatment of Crohn's Disease", "value": "used successfully"}]}
